Data taken from patent publication US12173018B2, “Penicillin-binding protein inhibitors” (priority 2018, dated 2024).

Key:
[1] = system: A. baumannii ATCC 19606; assay: Broth microdilution MIC, A. baumannii ATCC 19606; assay type: cell-based; conditions: Acinetobacter baumannii, ATCC19606, read-out: MIC A. baumannii ATCC 19606
Procedure, shortened: (§1)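 Broth microdilution MICs followed CLSI methods in cation-supplemented Mueller-Hinton broth, with 2-fold serial compound dilutions. Log-phase cultures grown 3–5 h were added to a starting inoculum of 5×10^5 CFU/mL and incubated 16–20 h at 37 °C. The MIC was read visually as the lowest concentration with no growth.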

[2] = system: P. aeruginosa ATCC 27853; assay: Broth microdilution MIC, P. aeruginosa ATCC 27853; assay type: cell-based; conditions: Pseudomonas aeruginosa, ATCC27853, read-out: MIC P. aeruginosa ATCC 27853
Method: To determine the ability of test compounds to potentiate the inhibition of the growth of bacterial strains, classic cell based broth microdilution minimum inhibitory concentration (MIC) assays were employed. MIC assays are performed according to CLSI methods except where otherwise noted (CLSI, 2011 and CLSI, 2009). The reference type strain E. coli ATCC 25922, the wild-type parent strain E. coli AG100, the hyper-permeable E. coli 901C and E. coli D22 and the E. coli AG100A strain lacking the acrAB efflux pump encoding genes were used to determine the ability of the PBP inhibitors to penetrate the outer membrane of gram-negative bacteria and inhibit bacterial growth. […] The P. aeruginosa PAO1, P. aeruginosa ATCC 27853 and A. baumannii ATCC 19606, along with the hyper-permeable P. aeruginosa ATCC 35151 and an engineered efflux pump-compromised strain of P. aeruginosa (ΔmexAB-oprM) were used to determine the ability of PBP inhibitors to penetrate the outer membrane of P. aeruginosa and A. baumannii and assess antibacterial activity against these important gram-negative organisms.
Briefly, cryo-preserved bacterial cultures of challenge strains are streaked for isolation on appropriate agar medium, in this case Mueller Hinton II agar. Following incubation to allow growth of the colonies, plates are sealed with parafilm and stored refrigerated for up to two weeks. For preparation of assay inoculum and to ensure low variability, at least 5 colonies are picked from the agar plates with an inoculating loop and aseptically transferred to a culture tube containing 3 mL of Mueller-Hinton Broth (supplemented with divalent cations to required levels based on Manufacturers' certification). The broth culture is grown for 3-5 hours at 37° C. with shaking at 200 rpm. Meanwhile, 2-fold serial dilutions of test compounds are conducted in a 96 well plate with a final volume of 75 μL per well at 2-fold the final desired concentration. After the dilution plates are set up the growing cultures are then diluted in a cuvette containing MH II broth and the optical density is measured at 600 nm. The Inoculum is diluted such that 75 μL of this culture in Mueller-Hinton Broth results in a starting bacterial concentration of 5×10^5 CFU/mL when added to the dilution plates. The plates are incubated for 16-20 hours at 37° C. The MIC values are read visually as the lowest concentration well with no bacterial growth.

[3] = system: E. coli D22; assay: microbe, parasite or virus in culture; assay type: cell-based; conditions: Escherichia coli; hyper-permeable E. coli D22, broth microdilution; read-out: MIC E. coli D22
Procedure, shortened: as §1

[4] = system: E. coli AG100A; assay: microbe, parasite or virus in culture; assay type: cell-based; conditions: Escherichia coli, read-out: MIC E. coli AG100A
Procedure, shortened: as §1

[5] = system: K. pneumoniae UMM; assay: microbe, parasite or virus in culture; assay type: cell-based; conditions: Klebsiella pneumoniae; K. pneumoniae UMM producing SHV-5 and KPC-2; read-out: MIC K. pneumoniae UMM
Procedure, shortened: as §1

[6] = system: P. aeruginosa (ΔmexAB-oprM); assay: microbe, parasite or virus in culture; assay type: cell-based; conditions: Pseudomonas aeruginosa, read-out: MIC P. aeruginosa ΔmexAB-OprM
Procedure, shortened: as §1

[7] = system: E. coli 901C; assay: microbe, parasite or virus in culture; assay type: cell-based; conditions: Escherichia coli; hyper-permeable E. coli 901C, broth microdilution; read-out: MIC E. coli 901C
Procedure, shortened: as §1

[8] = system: K. pneumoniae SI-117; assay: microbe, parasite or virus in culture; assay type: cell-based; conditions: Klebsiella pneumoniae, SI117, read-out: MIC K. pneumoniae SI-117
Procedure, shortened: as §1

[9] = system: P. aeruginosa ATCC 35151; assay: microbe, parasite or virus in culture; assay type: cell-based; conditions: Pseudomonas aeruginosa, ATCC35151; hyper-permeable P. aeruginosa ATCC 35151; read-out: MIC P. aeruginosa ATCC 35151
Procedure, shortened: as §1

[10] = system: K. pneumoniae 848844; assay: microbe, parasite or virus in culture; assay type: cell-based, Klebsiella pneumoniae; conditions: Klebsiella pneumoniae; K. pneumoniae 848844 producing SHV-11 and KPC-2; read-out: MIC K. pneumoniae 848844
Procedure, shortened: as §1

[11] = system: E. coli AG100; assay: Broth microdilution MIC, E. coli AG100 (wild-type parent); assay type: cell-based; conditions: Escherichia coli; wild-type parent E. coli AG100, broth microdilution; read-out: MIC E. coli AG100
Procedure, shortened: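 Starting inoculum of 5×10^5 CFU/mL, from colonies grown 3-5 h in Mueller-Hinton broth with divalent cations, added to two-fold compound dilution series.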

[12] = system: E. coli ATCC 25922; assay: Broth microdilution MIC, E. coli ATCC 25922; assay type: cell-based; conditions: Escherichia coli, ATCC25922, read-out: MIC E. coli 25922
Procedure, shortened: as §1

SMILES | MIC [1] | MIC [2] | MIC [3] | MIC [4] | MIC [5] | MIC [6] | MIC [7] | MIC [8] | MIC [9] | MIC [10] | MIC [11] | MIC [12]
CC(=O)NCCN1CCN(C(=O)NC(C(=O)N[C@H]2Cc3ccc(F)c(C(=O)O)c3OB2O)c2ccc(O)c(O)c2Cl)C(=O)C1=O (stereo partly drawn) [Example 243, (3R)-3-(2-(4-(2-acetamidoethyl)-2,3-dioxopiperazine-1-carboxamido)-2-(2-chloro-3,4-dihydroxyphenyl)acetamido)-7-fluoro-2-hydroxy-3,4-dihydro-2H-benzo[e][1,2]oxaborinine-8-carboxylic acid] | 0.5 to 1 µg/mL | < 0.25 µg/mL | 2 to 4 µg/mL | 0.5 to 1 µg/mL | 2 to 4 µg/mL | < 0.25 µg/mL | 0.5 to 1 µg/mL | 2 to 4 µg/mL | < 0.25 µg/mL | 2 to 4 µg/mL | 2 to 4 µg/mL | 8 to 16 µg/mL
NS(=O)(=O)NCCN1CCN(C(=O)NC(C(=O)N[C@H]2Cc3ccc(F)c(C(=O)O)c3OB2O)c2ccc(O)c(O)c2Cl)C(=O)C1=O (stereo partly drawn) [Example 244, (3R)-3-(2-(2-chloro-3,4-dihydroxyphenyl)-2-(2,3-dioxo-4-(2-(sulfamoylamino)ethyl)piperazine-1-carboxamido)acetamido)-7-fluoro-2-hydroxy-3,4-dihydro-2H-benzo[e][1,2]oxaborinine-8-carboxylic acid] | < 0.25 µg/mL | < 0.25 µg/mL | 0.5 to 1 µg/mL | 0.5 to 1 µg/mL | 0.5 to 1 µg/mL | < 0.25 µg/mL | 0.5 to 1 µg/mL | 2 to 4 µg/mL | < 0.25 µg/mL | 2 to 4 µg/mL | 2 to 4 µg/mL | 8 to 16 µg/mL
CCN1CC(C)(C)N(C(=O)NC(C(=O)N[C@H]2Cc3cccc(C(=O)O)c3OB2O)c2ncc(O)cc2F)C(=O)C1=O (stereo partly drawn) [Example 245, (3R)-3-(2-(4-ethyl-2,2-dimethyl-5,6-dioxopiperazine-1-carboxamido)-2-(3-fluoro-5-hydroxypyridin-2-yl)acetamido)-2-hydroxy-3,4-dihydro-2H-benzo[e][1,2]oxaborinine-8-carboxylic acid] | > 128 µg/mL | > 128 µg/mL | > 128 µg/mL | 32 to 64 µg/mL | > 128 µg/mL | > 128 µg/mL | 8 to 16 µg/mL | > 128 µg/mL | 32 to 64 µg/mL | > 128 µg/mL | > 128 µg/mL | > 128 µg/mL
C[C@H]1CN(CCN)C(=O)C(=O)N1C(=O)NC(C(=O)N[C@H]1Cc2cccc(C(=O)O)c2OB1O)c1ccc(O)c(O)c1Cl (stereo partly drawn) [Example 248, (3R)-3-(2-((S)-4-(2-aminoethyl)-6-methyl-2,3-dioxopiperazine-1-carboxamido)-2-(2-chloro-3,4-dihydroxyphenyl)acetamido)-2-hydroxy-3,4-dihydro-2H-benzo[e][1,2]oxaborinine-8-carboxylic acid] | 0.5 to 1 µg/mL | 32 to 64 µg/mL | 2 to 4 µg/mL | 0.5 to 1 µg/mL | 2 to 4 µg/mL | < 0.25 µg/mL | 0.5 to 1 µg/mL | 2 to 4 µg/mL | < 0.25 µg/mL | 2 to 4 µg/mL | 2 to 4 µg/mL | 8 to 16 µg/mL
O=C(O)CN1CCN(C(=O)NC(C(=O)N[C@H]2Cc3cccc(C(=O)O)c3OB2O)c2ccc(O)c(O)c2Cl)C(=O)C1=O (stereo partly drawn) [Example 249, (3R)-3-(2-(4-(carboxymethyl)-2,3-dioxopiperazine-1-carboxamido)-2-(2-chloro-3,4-dihydroxyphenyl)acetamido)-2-hydroxy-3,4-dihydro-2H-benzo[e][1,2]oxaborinine-8-carboxylic acid] | 0.5 to 1 µg/mL | 0.5 to 1 µg/mL | 8 to 16 µg/mL | 8 to 16 µg/mL | 8 to 16 µg/mL | < 0.25 µg/mL | 2 to 4 µg/mL | 8 to 16 µg/mL | < 0.25 µg/mL | 2 to 4 µg/mL | 8 to 16 µg/mL | 32 to 64 µg/mL
C[C@H]1CN(CCN)C(=O)C(=O)N1C(=O)N[C@@H](C(=O)N[C@H]1Cc2ccc(F)c(C(=O)O)c2OB1O)c1ccc(O)c(O)c1Cl [Example 250, (R)-3-((R)-2-((S)-4-(2-aminoethyl)-6-methyl-2,3-dioxopiperazine-1-carboxamido)-2-(2-chloro-3,4-dihydroxyphenyl)acetamido)-7-fluoro-2-hydroxy-3,4-dihydro-2H-benzo[e][1,2]oxaborinine-8-carboxylic acid] | < 0.25 µg/mL | 0.5 to 1 µg/mL | 0.5 to 1 µg/mL | 0.5 to 1 µg/mL | 0.5 to 1 µg/mL | < 0.25 µg/mL | 0.5 to 1 µg/mL | 2 to 4 µg/mL | < 0.25 µg/mL | 0.5 to 1 µg/mL | 0.5 to 1 µg/mL | 2 to 4 µg/mL
CCN1CCN(C(=O)N[C@@H](C(=O)N[C@H]2Cc3ccc(F)c(C(=O)O)c3OB2O)c2c(F)cc(O)c(O)c2Cl)C(=O)C1=O [Example 251, (R)-3-((R)-2-(2-chloro-6-fluoro-3,4-dihydroxyphenyl)-2-(4-ethyl-2,3-dioxopiperazine-1-carboxamido)acetamido)-7-fluoro-2-hydroxy-3,4-dihydro-2H-benzo[e][1,2]oxaborinine-8-carboxylic acid] | 0.5 to 1 µg/mL | 0.5 to 1 µg/mL | 0.5 to 1 µg/mL | 0.5 to 1 µg/mL | 0.5 to 1 µg/mL | < 0.25 µg/mL | 0.5 to 1 µg/mL | 2 to 4 µg/mL | < 0.25 µg/mL | 2 to 4 µg/mL | 0.5 to 1 µg/mL | 2 to 4 µg/mL
NCCCN1CCN(C(=O)N[C@@H](C(=O)N[C@H]2Cc3cccc(C(=O)O)c3OB2O)c2ncc(O)cc2F)C(=O)C1=O [Example 252, (R)-3-((R)-2-(4-(3-aminopropyl)-2,3-dioxopiperazine-1-carboxamido)-2-(3-fluoro-5-hydroxypyridin-2-yl)acetamido)-2-hydroxy-3,4-dihydro-2H-benzo[e][1,2]oxaborinine-8-carboxylic acid] | > 128 µg/mL | 32 to 64 µg/mL | 2 to 4 µg/mL | 0.5 to 1 µg/mL | 8 to 16 µg/mL | 8 to 16 µg/mL | 0.5 to 1 µg/mL | 32 to 64 µg/mL | < 0.25 µg/mL | 32 to 64 µg/mL | 8 to 16 µg/mL | 8 to 16 µg/mL
